# Results from patent US8829014B2, “Thiazole and thiophene analogues, and their use in treating autoimmune diseases and cancers” (Board of Supervisors of Louisiana State University and …, priority 2006, dated 2014).
# Experiments:
# [1] = system: AP-1; assay: AP-1 inhibitor screen: basal AP-1-dependent luciferase expression in HEK/AP-1 cell line; assay type: cell-based; conditions: AP1; 1 uM; determined as described in Example 398
# Method in brief: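 HEK293 cells stably carrying a luciferase reporter driven by three AP-1 elements were plated 24 hr, then given compound at 1.0 μM in 0.3% DMSO for 48 hr, in triplicate. Basal expression without stimulus was read as luminescence (Brite-Glo), normalized to DMSO; dose-response runs repeated two to four times.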
# [2] = system: NF-κB; assay: NF-κB inhibitor screen: basal NF-κB-dependent luciferase expression in HEK/NF-κB cell line; assay type: cell-based; conditions: 1 uM; determined as described in Example 398; read-out: NFkB inhibition @ 1 uM
# Method in brief: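 HEK293 cells stably carrying a luciferase reporter under six NF-κB elements were treated with compound, unstimulated, 24 h after plating. Compounds were first tested at 1.0 μM (0.3% DMSO), later at six doses from 10 to 3300 nM, in triplicate. Brite-Glo luciferase signal was normalized to DMSO, or to the lowest dose for dose-response runs.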
Structure (SMILES),inhibition at 1 µM [1] [%],melting point [°C],inhibition at 1 µM [2] [%]
"CNc1nc(C)c(-c2nc3ccccc3c(=O)n2-c2cccc(C)c2)s1 [Example 181, 2-(4-methyl-2-methylamino-thiazol-5-yl)-3-m-tolyl-3H-quinazolin-4-one]",20,> 275,10
"CC(=O)c1ccc(-n2c(-c3sc(Nc4ccccc4)nc3C)nc3ccccc3c2=O)cc1 [Example 262, 2-(4-Methyl-2-phenylamino-thiazol-5-yl)-3-(4-acetyl-phenyl)-3H-quinazolin-4-one]",7,271 to 273,15
"CC(=O)c1ccc(-n2c(-c3sc(NC(=O)c4ccc(C)cc4)nc3-c3ccccc3)nc3ccccc3c2=O)cc1 [Example 269, 4-Methyl-N-[5-(4-oxo-3-(4-acetyl-phenyl)-3,4-dihydroquinazolin-2-yl)-4-phenyl-thiazol-2-yl]-benzamide]",1,266 to 267,27
"COC(=O)Nc1nc(-c2ccccc2)c(-c2nc3ccccc3c(=O)n2-c2ccccc2C)s1 [Example 172, [5-(4-Oxo-3-o-tolyl-3,4-dihydro-quinazolin-2-yl)-4-phenyl-thiazol-2-yl]-carbamic acid methyl ester]",25,> 275,0
"COC(=O)Nc1nc(-c2ccccc2)c(-c2nc3ccccc3c(=O)n2-c2ccccc2Cl)s1 [Example 232, [5-(4-Oxo-3-(2-chloro-phenyl)-3,4-dihydro-quinazolin-2-yl)-4-phenyl-thiazol-2-yl]-carbamic acid methyl ester]",67,> 275,55
"COc1cccc(-n2c(-c3sc(NC(=O)c4ccccc4)nc3-c3ccccc3)nc3ccccc3c2=O)c1 [Example 214, N-[5-(4-Oxo-3-(3-methoxyphenyl)-3,4-dihydro-quinazolin-2-yl)-4-phenyl-thiazole-2-yl]benzamide]",30,195 to 196,34
"Cc1cccc(-n2c(-c3sc(Nc4ccc(Cl)cc4)nc3C)nc3ccccc3c2=O)c1 [Example 183, 2-[2-(4-Chlorophenylamino)-4-methyl-thiazol-5-yl]-3-m-tolyl-3H-quinazolin-4-one]",39,236 to 238,2
"CNc1nc(-c2ccccc2)c(-c2nc3ccccc3c(=O)n2-c2cccc(C)c2)s1 [Example 186, 2-(2-methylamino-4-phenyl-thiazol-5-yl)-3-m-tolyl-3H-quinazolin-4-one]",10,186 to 187,23
"Cc1ccc(-n2c(-c3sc(Nc4ccccc4)nc3-c3ccccc3)nc3ccccc3c2=O)cc1 [Example 196, 3-p-Tolyl-2-(4-phenyl-2-phenylamino-thiazol-5-yl)-3H-quinazolin-4-one]",10,225 to 228,38
"Cc1ccc(C(=O)Nc2nc(-c3ccccc3)c(-c3nc4ccccc4c(=O)n3-c3ccccc3C)s2)cc1 [Example 176, 4-Methyl-N-[5-(4-oxo-3-o-tolyl-3,4-dihydroquinazolin-2-yl)-4-phenyl-thiazol-2-yl]-benzamide]",29,> 275,-8
"CC(=O)c1ccc(-n2c(-c3sc(Nc4ccccc4)nc3-c3ccccc3)nc3ccccc3c2=O)cc1 [Example 267, 3-(4-acetyl-phenyl)-2-(4-phenyl-2-phenylamino-thiazol-5-yl)-3H-quinazolin-4-one]",19,223 to 225,43
"Cc1cccc(-n2c(-c3cc(-c4ccccc4)c(N4CCOCC4)s3)nc3ccccc3c2=O)c1 [Example 284, 2-(5-Morpholin-4-yl-4-phenyl-thiophene-2-yl)-3-m-tolyl-3H-quinazolin-4-one]",–,194 to 196,–
"Cc1cccc(-n2c(-c3cc(-c4ccc(Cl)cc4)c(N4CCOCC4)s3)nc3ccccc3c2=O)c1 [Example 285, 2-[4-(4-Chloro-phenyl)-5-morpholin-4-yl-thiophen-2-yl]-3-m-tolyl-3H-quinazolin-4-one]",–,228 to 230,–
"CNc1nc(-c2ccccc2)c(-c2nc3ccccc3c(=O)n2-c2ccc(C(C)=O)cc2)s1 [Example 266, 2-(2-Methylamino-4-phenyl-thiazol-5-yl)-3-(4-acetyl-phenyl)-3H-quinazolin-4-one]",15,239 to 240,4
"Cc1nc(Nc2ccccc2)sc1-c1nc2ccccc2c(=O)n1-c1ccccc1Cl [Example 229, 2-(4-Methyl-2-phenylamino-thiazol-5-yl)-3-(2-chloro-phenyl)-3H-quinazolin-4-one]",21,228 to 229,6
"CNc1nc(-c2ccccc2)c(-c2nc3ccccc3c(=O)n2-c2ccc(C)cc2)s1 [Example 195, 2-(2-Methylamino-4-phenyl-thiazol-5-yl)-3-p-tolyl-3H-quinazolin-4-one]",–,192 to 193,–
"CC(=O)c1ccc(-n2c(-c3sc(NC(=O)c4ccccc4)nc3-c3ccccc3)nc3ccccc3c2=O)cc1 [Example 268, N-[5-(4-Oxo-3-(4-acetyl-phenyl)-3,4-dihydro-quinazolin-2-yl)-4-phenyl-thiazole-2-yl]benzamide]",44,250 to 252,18
"Cc1ccc(-n2c(-c3sc(NC(=O)c4ccccc4)nc3-c3ccccc3)nc3ccccc3c2=O)cc1 [Example 197, N-[5-(4-Oxo-3-p-tolyl-3,4-dihydro-quinazolin-2-yl)-4-phenyl-thiazole-2-yl]benzamide]",–,> 275,–
"COc1ccccc1-n1c(-c2cc(-c3ccc(Cl)cc3)c(N3CCOCC3)s2)nc2ccccc2c1=O [Example 295, 2-[4-(4-Chlorophenyl)-5-morpholin-4-yl-thiophene-2-yl]-3-(2-methoxy-phenyl)-3H-quinazolin-4-one]",–,216 to 217,–
"Cc1cccc(-n2c(-c3sc(NC(=O)c4ccccc4)nc3-c3ccccc3)nc3ccccc3c2=O)c1 [Example 188, N-[5-(4-Oxo-3-m-tolyl-3,4-dihydro-quinazolin-2-yl)-4-phenyl-thiazole-2-yl]benzamide]",63,> 275,42
"CNc1nc(-c2ccccc2)c(-c2nc3ccccc3c(=O)n2-c2ccccc2C)s1 [Example 173, 2-(2-methylamino-4-phenyl-thiazol-5-yl)-3-o-tolyl-3H-quinazolin-4-one]",–,220 to 225,–
COC(=O)Nc1nc(C)c(-c2nc3ccccc3c(=O)n2-c2cccc(C)c2)s1,–,232 to 233,–
"Cc1ccccc1-n1c(-c2cc(-c3ccncc3)c(N3CCOCC3)s2)nc2ccccc2c1=O [Example 283, 2-(5-Morpholin-4-yl-4-pyridin-4-yl-thiophen-2-yl)-3-o-tolyl-3H-quinazolin-4-one]",–,208 to 210,–
